Assay results as given in ChEMBL document CHEMBL3244320, “2-Acetylpyridine thiosemicarbazones. 1. A new class of potential antimalarial agents” (J Med Chem, 1979).

What was measured:
Assay type in all cases: functional
Settings in all cases: route subcutaneous
[1] = test system: Plasmodium berghei; experiment: Antimalarial activity against Plasmodium berghei KBG 173 infected in ICR/HA Swiss mouse assessed as increase in mean survival time at 40 mg/kg, sc administered 72 hrs post infection
[2] = test system: Plasmodium berghei; experiment: Antimalarial activity against Plasmodium berghei KBG 173 infected in ICR/HA Swiss mouse assessed as increase in mean survival time at 160 mg/kg, sc administered 72 hrs post infection
[3] = test system: Plasmodium berghei; experiment: Antimalarial activity against Plasmodium berghei KBG 173 infected in ICR/HA Swiss mouse assessed as increase in mean survival time at 640 mg/kg, sc administered 72 hrs post infection
[4] = test system: Plasmodium berghei; experiment: Antimalarial activity against Plasmodium berghei KBG 173 infected in ICR/HA Swiss mouse assessed as increase in mean survival time at 80 mg/kg, sc administered 72 hrs post infection
[5] = test system: Plasmodium berghei; experiment: Antimalarial activity against Plasmodium berghei KBG 173 infected in ICR/HA Swiss mouse assessed as increase in mean survival time at 320 mg/kg, sc administered 72 hrs post infection

Row | Structure (SMILES) | MST [1] | MST [2] | MST [3] | MST [4] | MST [5]
1 | COc1ccc(NC(=S)N/N=C(\C)c2ccccn2)nn1 | 0.1 days | 0.1 days | 0.2 days |  | 
2 | C/C(=N\NC(=S)Nc1ccc(Br)cc1)c1ccccn1 | 0.3 days | 0.3 days | 0.5 days |  | 
3 | C/C(=N\NC(=S)NCc1ccc(Cl)cc1)c1ccccn1 | 0.5 days | 2.1 days | 6.9 days | 0.5 days | 4.3 days
4 | C/C(=N\N=C(/S)NCc1ccccc1)c1ccccn1 | 0.5 days | 3.7 days | 10.6 days |  | 
5 | C/C(=N\NC(=S)NCc1cccc(F)c1)c1ccccn1 | 0.4 days | 3.4 days | 9.4 days | 1.4 days | 5.8 days
6 | CC/C(=N\NC(=S)Nc1ccc([N+](=O)[O-])cc1)c1ccccn1 | 0.1 days | 0.1 days | 0.3 days |  | 
7 | CC/C(=N\NC(=S)Nc1cccc(Cl)c1)c1ccccn1 | 0.3 days | 0.3 days | 0.5 days |  | 
8 | C/C(=N\NC(=S)Nc1c2ccccc2nc2ccccc12)c1ccccn1 | 0.3 days | 0.3 days | 0.5 days |  | 
9 | C/C(=N\NC(=S)NC(C)c1ccc(F)cc1)c1ccccn1 (centres undefined) | 1.1 days | 8.5 days |  | 5.5 days | 5.2 days
10 | C/C(=N\NC(=S)Nc1ccccc1)c1ccccn1 | 3.1 days | 11.1 days |  | 4.7 days | 
11 | C/C(=N\NC(=S)Nc1cccc(Cl)c1Cl)c1ccccn1 | -0.2 days | 0.2 days | 0.6 days |  | 
12 | CC/C(=N\NC(=S)Nc1ccc(Cl)cc1)c1ccccn1 | 0.3 days | 0.7 days | 1.1 days |  | 
13 | C/C(=N\NC(=S)Nc1cc(Cl)ccc1Cl)c1ccccn1 | -0.1 days | 0.1 days | 0.1 days |  | 
14 | C/C(=N\NC(=S)Nc1cc(Cl)c(Cl)cc1Cl)c1ccccn1 | -0.3 days | 0.1 days | -0.1 days |  | 
15 | C/C(=N\NC(=S)NCc1ccc(Cl)c(Cl)c1)c1ccccn1 | 0.1 days | 0.5 days | 0.1 days |  | 
16 | C/C(=N\NC(=S)Nc1cc(Cl)cc(Cl)c1)c1ccccn1 | -0.2 days | -0.2 days | 0 days |  | 

Row | Structure (SMILES) | MST [1] | MST [2] | MST [3] | MST [4] | MST [5]
17 | C/C(=N\NC(=S)Nc1cccc([N+](=O)[O-])c1)c1ccccn1 | 0.1 days | -0.3 days | -0.1 days |  | 
18 | C/C(=N\NC(=S)Nc1ccc(O)cc1)c1ccccn1 | 0.1 days | 0.3 days | 0.6 days |  | 
19 | C/C(=N\NC(=S)Nc1cccc(Br)c1)c1ccccn1 | 0.1 days | 0.3 days | 0.9 days |  | 
20 | CC/C(=N\NC(=S)Nc1ccccc1)c1ccccn1 | 0 days | 2.6 days |  | 1.2 days | 
21 | C/C(=N\NC(=S)Nc1ccc(Cl)cc1Cl)c1ccccn1 | -0.1 days | 0.3 days | 0.7 days |  | 
22 | C/C(=N\NC(=S)Nc1cccnc1)c1ccccn1 | 0.3 days | 0.5 days | 1.3 days |  | 
23 | C/C(=N\NC(=S)NCc1cccc(Cl)c1)c1ccccn1 |  | 1.6 days | -0.4 days | 0 days | 0 days
24 | CC/C(=N\NC(=S)Nc1ccccc1Cl)c1ccccn1 | 0.1 days | 0.1 days | 0.3 days |  | 
25 | C/C(=N\NC(=S)Nc1ccc(Cl)c(Cl)c1Cl)c1ccccn1 | 0.1 days | 0.1 days | -0.3 days |  | 
26 | COc1ccc(NC(=S)N/N=C(\C)c2ccccn2)cc1 | 2.1 days | 9.7 days | 1.7 days |  | 
27 | C/C(=N\NC(=S)NCc1cccc(C)c1)c1ccccn1 | 0.3 days | 0.7 days | 6.5 days |  | 
28 | C/C(=N\NC(=S)Nc1ccccc1Br)c1ccccn1 | 0.1 days | 0.5 days | 0.9 days |  | 
29 | C/C(=N\NC(=S)Nc1ccc([N+](=O)[O-])cc1)c1ccccn1 | 0.1 days | 0.1 days | 0.5 days |  | 
30 | CCOC(=O)CNC(=S)N/N=C(\CC)c1ccccn1 | 0.3 days | 0.3 days | 0.5 days |  | 
31 | COc1cc(NC(=S)N/N=C(\C)c2ccccn2)c2nccc(C)c2c1 | 0.1 days | 0.1 days | 0.3 days |  | 
